± gives the expanded uncertainty stated by the source.
Test: mn = molality of the nth substance listed, in mol/kg
Details: 101 kPa, Liquid, Sing-around technique in a fixed-path interferometer

CN(CCO)CCO [N-methyldiethanolamine] + O
speed of sound [m/s]
Details | m1 = 0.3067 | m1 = 0.5017 | m1 = 0.7035 | m1 = 0.8982 | m1 = 1.088 | m1 = 1.357 | m1 = 1.652 | m1 = 2.161
283.15 K | 1474.2 ± 0.99 | 1489.7 ± 1 | 1505.1 ± 1 | 1519.3 ± 1 | 1532.8 ± 1 | 1550.9 ± 1 | 1569.5 ± 1.1 | 1598.7 ± 1.1
298.15 K | 1520 ± 0.99 | 1532.9 ± 1 | 1545.8 ± 1 | 1557.6 ± 1 | 1568.7 ± 1 | 1583.6 ± 1 | 1598.9 ± 1.1 | 1622.6 ± 1.1
313.15 K | 1547.7 ± 0.99 | 1557.7 ± 1 | 1567.7 ± 1 | 1576.9 ± 1 | 1585.5 ± 1 | 1597 ± 1 | 1608.8 ± 1.1 | 1626.9 ± 1.1

From the NIST ThermoML archive (doi:10.1016/j.jct.2005.10.013)
